Holding throughout (experiment): Antifungal MIC, broth dilution
(Broth dilution looks for growth in wells or tubes with falling amounts of substance.)

The subject of assay [1] is C. albicans ATCC 24433. The assay is classed as cell-based, Candida albicans. The settings on record: Candida albicans, ATCC24433, RPMI 1640 with MOPS, end point 48 hours; for MIC80: read-out: Ca01 A: MIC80; for MIC50: read-out: Ca01 B: MIC50. Here is the method: (§1) The compounds of Formula 1 were tested for antifungal activity against Candida albicans, Aspergillus niger and Fusarium proliferatum. In vitro evaluation of antifungal activity was performed by determining the minimum inhibitory concentration (MIC) following standard methods (CLSI: Reference method for broth dilution antifungal susceptibility testing of yeasts; Approved standard, second edition M27-A2, 2002; CLSI: Reference method for broth dilution antifungal susceptibility testing of filamentous fungi; Approved standard M38-A, 2002). Anti-fungal susceptibility testing of these anti-fungal compounds was done by broth dilution method using RPMI 1640 medium with MOPS buffer. Known anti-fungal agents like fluconazole and amphotericin-B were used as positive control. End points were determined after 48 hours visually and by using spectrophotometer wherever necessary. Different dilutions were tried and various sets of experiments performed. The activity parameters are enumerated in Table 5.

Assay [2] has as its system C. glabrata ATCC 90030. The assay is classed as cell-based. To be noted: Nakaseomyces glabratus, ATCC90030, RPMI 1640 with MOPS, end point 48 hours, read-out: Cg01 MIC50.
Assay [3] deals with C. krusei ATCC 6258. The assay is classed as cell-based. To be noted: Pichia kudriavzevii, ATCC6258, RPMI 1640 with MOPS, end point 48 hours, read-out: Ck01 MIC50.
The test system of assay [4] is C. tropicalis ATCC 750. The assay is classed as cell-based. To be noted: Candida tropicalis, ATCC750, RPMI 1640 with MOPS, end point 48 hours, read-out: Ct01 MIC50.
Assay [5] has as its system C. neoformans ATCC 34664. Type of assay: cell-based. The settings on record: Cryptococcus neoformans, ATCC34664, RPMI 1640 with MOPS, end point 48 hours, read-out: Cn01 MIC50.
Assay [6] relates to A. niger ATCC 16404. The assay is classed as cell-based, Aspergillus niger. To be noted: Aspergillus niger, ATCC16404, RPMI 1640 with MOPS, end point 48 hours, read-out: An01 MIC50. As for the experimental part: as §1
The test system of assay [7] is A. fumigatus ATCC 46645. Type of assay: cell-based. To be noted: Aspergillus fumigatus, ATCC46645, RPMI 1640 with MOPS, end point 48 hours, read-out: Afm01 MIC50.
In assay [8] the test system is F. proliferatum ATCC 10052. Type of assay: cell-based, Fusarium proliferatum. To be noted: Fusarium proliferatum, ATCC10052, RPMI 1640 with MOPS, end point 48 hours, read-out: Fp01 MIC50. Here is the method: as §1

In brackets after ≈: the same amount, converted by molar mass.

As a reminder, the MIC80 is an inhibitory concentration at the 80% level, which refers to growth in some studies and to a panel of isolates in others. One may read the MIC50 as an inhibitory concentration at the 50% level, which refers to growth in some studies and to a panel of isolates in others.

As for `Cn1cc(/C=C/C(=O)c2ccc(OCC(O)(Cn3cncn3)c3ccc(F)cc3F)cc2)c2ccccc21` (stereo not drawn) [Compound 1A-16], the MIC80 in assay [1] was 0.5 µg/mL (≈ 0.972 µM). In addition, the MIC50 in assay [1] was 0.25 µg/mL (≈ 0.486 µM); in assay [2], 2 µg/mL (≈ 3.89 µM); in assay [3] it was greater than 4 µg/mL; in assay [4] it was 2 µg/mL (≈ 3.89 µM); in assay [5], 4 µg/mL (≈ 7.77 µM); in assay [6], greater than 4 µg/mL. The MIC50 in assay [7] and in assay [8] was greater than 4 µg/mL each time.
Regarding `O=C(/C=C/c1cccs1)c1ccc(OCC(O)(Cn2cncn2)c2ccc(F)cc2)cc1` (stereo not drawn) [Compound 1A-17], the MIC80 in assay [1] was found to be 0.5 µg/mL (≈ 1.11 µM). Besides, the MIC50 in assay [1] was 0.25 µg/mL (≈ 0.556 µM); in assay [2], 0.25 µg/mL (≈ 0.556 µM); in assay [3], 8 µg/mL (≈ 17.8 µM); in assay [4], 2 µg/mL (≈ 4.45 µM); in assay [5], 1 µg/mL (≈ 2.22 µM); in assay [6] it was greater than 8 µg/mL. Also, the MIC50 in assay [7] and in assay [8] was greater than 8 µg/mL throughout.
`C=CCOC(COc1ccc(C(=O)/C=C/c2ccc(Cl)cc2Cl)cc1)(Cn1cncn1)c1ccc(F)cc1F` (stereo not drawn) [Compound 1A-18, (E)-1-(4-(2-(Allyloxy)-2-(2,4-difluorophenyl)-3-(1H-1,2,4-triazol-1-yl)propoxy)phenyl)-3-(2,4-dichlorophenyl)prop-2-en-1-one]: the MIC80 in assay [1] was greater than 4 µg/mL. For the same compound, the MIC50 in assay [1], in assay [2], in assay [3], in assay [4], in assay [5] and in assay [6] was greater than 4 µg/mL each time. Besides, the MIC50 in assay [7] and in assay [8] was greater than 4 µg/mL in each case.
With `COC(COc1ccc(C(=O)/C=C/c2ccc(Cl)cc2Cl)cc1)(Cn1cncn1)c1ccc(F)cc1F` (stereo not drawn) [Compound 1A-19, (E)-3-(2,4-dichlorophenyl)-1-(4-(2-(2,4-difluorophenyl)-2-methoxy-3-(1H-1,2,4-triazol-1-yl)propoxy)phenyl)prop-2-en-1-one], in assay [1], the MIC80 was greater than 4 µg/mL. Further, the MIC50 in assay [1] was 1 µg/mL (≈ 1.84 µM); in assay [2], 1 µg/mL (≈ 1.84 µM); in assay [3] it was greater than 4 µg/mL; in assay [4], greater than 4 µg/mL; in assay [5] it was greater than 4 µg/mL; in assay [6] it was greater than 4 µg/mL. Also, the MIC50 in assay [7] and in assay [8] was greater than 4 µg/mL each time.
`COc1ccc(C(=O)/C=C/c2ccc(OCC(O)(Cn3cncn3)c3ccc(F)cc3F)cc2)cc1` (stereo not drawn) [Compound 1A-20]: the MIC80 in assay [1] stood at 0.25 µg/mL (≈ 0.509 µM). In addition, the MIC50 in assay [1] was 0.12 µg/mL (≈ 0.244 µM); in assay [2], 0.25 µg/mL (≈ 0.509 µM); in assay [3], 4 µg/mL (≈ 8.14 µM); in assay [4] it was 1 µg/mL (≈ 2.03 µM); in assay [5], 1 µg/mL (≈ 2.03 µM); in assay [6], greater than 4 µg/mL. Further, the MIC50 in assay [7] is 8 µg/mL (≈ 16.3 µM); in assay [8] it was greater than 4 µg/mL.
Turning to `Cc1ccc(C(=O)/C=C/c2ccc(OCC(O)(Cn3cncn3)c3ccc(F)cc3F)cc2)cc1` (stereo not drawn) [Compound 1A-21], the MIC80 in assay [1] was determined as 0.25 µg/mL (≈ 0.526 µM). For the same compound, the MIC50 in assay [1] is 0.12 µg/mL (≈ 0.252 µM); in assay [2], 0.25 µg/mL (≈ 0.526 µM); in assay [3] it was 2 µg/mL (≈ 4.21 µM); in assay [4], 1 µg/mL (≈ 2.1 µM); in assay [5] it was 1 µg/mL (≈ 2.1 µM); in assay [6] it was greater than 4 µg/mL. Also, the MIC50 is 8 µg/mL (≈ 16.8 µM) in assay [7] and greater than 4 µg/mL in assay [8].
Take `O=C(/C=C/c1ccc(OCC(O)(Cn2cncn2)c2ccc(F)cc2F)cc1)c1ccc(Cl)cc1Cl` (stereo not drawn) [Compound 1A-22]: the MIC80 in assay [1] came out at 0.25 µg/mL (≈ 0.471 µM). For the same compound, the MIC50 was 0.12 µg/mL (≈ 0.226 µM) in assay [1]; 0.5 µg/mL (≈ 0.943 µM) in assay [2]; 2 µg/mL (≈ 3.77 µM) in assay [3]; 1 µg/mL (≈ 1.89 µM) in assay [4]; 1 µg/mL (≈ 1.89 µM) in assay [5]; greater than 4 µg/mL in assay [6]. Besides, the MIC50 in assay [7] and in assay [8] was greater than 4 µg/mL in each case.
`COc1ccc(C(=O)/C=C/c2ccc(OCC(O)(Cn3cncn3)c3ccc(F)cc3F)c(OC)c2)cc1` (stereo not drawn) [Compound 1A-23]: in assay [1], the MIC80 was 0.5 µg/mL (≈ 0.959 µM). Further, the MIC50 in assay [1] was 0.5 µg/mL (≈ 0.959 µM); in assay [2] it was 1 µg/mL (≈ 1.92 µM); in assay [3], 2 µg/mL (≈ 3.83 µM); in assay [4], 0.5 µg/mL (≈ 0.959 µM); in assay [5], 1 µg/mL (≈ 1.92 µM); in assay [6] it was greater than 4 µg/mL. Moreover, the MIC50 in assay [7] and in assay [8] was greater than 4 µg/mL each time.
